Here are results for 32 molecules from patent US12377152B2, “Compounds for degrading alpha-synuclein aggregates and uses thereof” (APRINOIA THERAPEUTICS LIMITED, priority 2019, dated 2025).

Structures are written as SMILES. Bounds are passed on as bounds.

The target in the experiment is α-synuclein aggregates (Homo sapiens (Human), UniProt P37840). Put plainly: ReNcell VM α-synuclein aggregation assay. The class given is cell-based. The following applies: for DC50: ReNcell VM cells, read-out: Activity (DC50, concentration at which 50% of α-synuclein aggregates has been degraded); for inhibition of MJFR14 immunoreactivity: 24 hour treatment, differentiated ReNcell VM cells. The protocol: The ReNcell VM α-synuclein aggregation assay was conducted at Charles River Laboratories (CRL). ReNcell VM is an immortalized human neural progenitor cell line derived from the ventral mesencephalon region of the brain. ReNcell VM cells were selected as in vitro cellular model for the α-synuclein aggregation assay, based on their growth features, differentiation potential into terminally differentiated neurons and amenability to adenoviral transduction. Aggregated human wild type α-synuclein was overexpressed through adenoviral delivery. Aggregated α-synuclein was detected with the aggregate-selective anti-α-synuclein antibody MJFR14 using immunocytochemistry; total α-synuclein levels were detected with Syn205 (α/β-synuclein-specific antibody).
The ReNcell VM α-synuclein aggregation assay was applied for compound screening to identify compounds capable of degrading α-synuclein aggregates. […] Immunoreactivity toward aggregated (MJFR14) and total α-synuclein (Syn205) was quantified using high content-based segmentation of immunoactive areas in immunocytochemical images (performed with the IN Cell 2200 (GE Healthcare)), followed by quantification of immunofluorescent intensity (performed by CRL's developed algorithm using IN Cell Developer Toolbox software).
Percentage effect (PE): Inhibition in comparison to BLANK (0.1% DMSO).
PE=100−(signal of compound/average signal BLANK)×100
Compound-induced cytotoxicity (% remaining cells)
% remaining cells=(nuclei count of compound/average nuclei count of BLANK)×100

Take `COc1ccc2nc(-c3ccc(-c4ccnc(NCCOCCOc5cccc6c5CN(C5CCC(=O)NC5=O)C6=O)c4)cc3)cn2c1` (stereo not shown) [Compound 190753]: the DC50 is above 10 µM. For `CN(C)c1ccc(-c2ccc(-c3nc4ccc(NC(=O)CCOCCOCCOc5ccc6c(c5)CN(C5CCC(=O)NC5=O)C6=O)cc4s3)cc2)cn1` (stereo not shown) [Compound 170357], the “inhibition of MJFR14 immunoreactivity” value is listed as “concentration-dependent inhibition” and the DC50 was in the range of 0.01 to 0.9 µM. For `CN(C)c1ccc(-c2ccc(-c3nc4ccc(NCCOCCOCCOCCOCCOCCOc5ccc6c(c5)C(=O)N(C5CCC(=O)NC5=O)C6=O)cc4s3)cc2)cn1` (stereo not shown) [Compound 159985, 2-[2,6-bis(oxo)piperidin-3-yl]-5-[2-[2-[2-[2-[2-[2-[[2-[4-[6-(dimethylamino)-pyridin-3-yl]phenyl]-1,3-benzothiazol-6-yl]amino]ethoxy]ethoxy]ethoxy]ethoxy]ethoxy]-ethoxy]isoindole-1,3-dione], the DC50 is above 10 µM. Still for that read-out and setting: next, `O=C1CCC(N2C(=O)c3ccc(OCCOCCNc4cc(-c5ccc(-c6nc7ccc(F)cc7s6)cc5)ccn4)cc3C2=O)C(=O)N1` (stereo not shown) [Compound 165952]: above 10 µM; `CN(C)c1ccc(-c2ccc(-c3nc4ccc(OCCOCCOCCOc5ccc6c(c5)CN(C5CCC(=O)NC5=O)C6=O)cc4s3)c(C(F)(F)F)c2)cn1` (stereo not shown) [Compound 174251]: above 10 µM. On the same count and under the same terms, next, `CN(C)c1ccc(-c2ccc(-c3cn4cc(OCCOCCOc5ccc6c(c5)C(=O)N(C5CCC(=O)NC5=O)C6=O)ccc4n3)cc2)c(F)n1` (stereo not shown) [Compound 161111, 2-[2,6-bis(oxo)piperidin-3-yl]-5-[2-[2-[2-[4-[6-(dimethylamino)-2-fluoro-pyridin-3-yl]phenyl]imidazo[1,2-a]pyridin-6-yl]oxyethoxy]ethoxy]isoindole-1,3-dione]: above 10 µM; `COc1ccc2nc(-c3ccc(-c4ccc(NCCOCCOc5ccc6c(c5)CN(C5CCC(=O)NC5=O)C6=O)nc4)cc3)cn2c1` (stereo not shown) [Compound 177037]: 0.9 to 10 µM. In the case of `CN(C)c1ccc(-c2ccc(-c3nc4ccc(NC(=O)CCCOc5ccc6c(c5)CN(C5CCC(=O)NC5=O)C6=O)cc4s3)cc2)cn1` (stereo not shown) [Compound 170742], the DC50 is above 10 µM. Same read-out and setting: the value for `O=C1CCC(N2Cc3cc(OCCOCCNc4cc(-c5ccc(-c6cn7cc(F)ccc7n6)cc5)ccn4)ccc3C2=O)C(=O)N1` (stereo not shown) [Compound 165824] was above 10 µM; that for `CN(C)c1ccc(-c2ccc(-c3cn4cc(OCCOCCN5C(=O)CCC(N6C(=O)c7ccc(O)cc7C6=O)C5=O)ccc4n3)cc2)c(F)n1` (stereo not shown) [Compound 170350] was 0.9 to 10 µM; that for `CN(C)c1ccc(-c2ccc(-c3nc4ccc(NC(=O)CCOCCOCCOc5ccc6c(c5)CN(C5CCC(=O)NC5=O)C6=O)cc4s3)c(C(F)(F)F)c2)cn1` (stereo not shown) [Compound 138266] was above 10 µM. For the molecule `CN(C)c1ccc(-c2ccc(-c3nc4ccc(NCCOCCOc5ccc6c(c5)C(=O)N(C5CCC(=O)NC5=O)C6=O)cc4s3)cc2)cn1` (stereo not shown) [Compound 160219, 2-[2,6-bis(oxo)piperidin-3-yl]-5-[2-[2-[[2-[4-[6-(dimethylamino)pyridin-3-yl]phenyl]-1,3-benzothiazol-6-yl]amino]ethoxy]ethoxy]isoindole-1,3-dione], the DC50 is above 10 µM.

As to `CN(C)c1ccc(-c2ccc(-c3nc4ccc(NC(=O)CCOCCOc5ccc6c(c5)CN(C5CCC(=O)NC5=O)C6=O)cc4s3)cc2)cn1` (stereo not shown) [Compound 170358], the DC50 is above 10 µM.

Consider `CN(C)c1ccc2nc(-c3ccc(-c4ccc(NCCOCCOc5ccc6c(c5)C(=O)N(C5CCC(=O)NC5=O)C6=O)nc4)cc3)sc2c1` (stereo not shown) [Compound 170353], for which the DC50 was above 10 µM. With `Cc1ncsc1-c1ccc(CNC(=O)[C@@H]2C[C@@H](O)CN2C(=O)[C@@H](NC(=O)COCCOCCOCCOCCOCCNc2ccc3nc(-c4ccc(-c5ccc(N(C)C)nc5)cc4)sc3c2)C(C)(C)C)cc1` (racemic) [Compound 161247, rac-(2R,4S)—N-[[4-(4-methyl-1,3-thiazol-5-yl)phenyl]methyl]-4-hydroxy-1-[rac-(2R)-2-[2-[2-[2-[2-[2-[2-[[2-[4-[6-(dimethylamino)pyridin-3-yl]phenyl]-1,3-benzothiazol-6-yl]-amino]ethoxy]ethoxy]ethoxy]ethoxy]ethoxy]ethanoylamino]-3,3-dimethyl-butanoyl]pyrrolidine-2-carboxamide], the DC50 was above 10 µM. `CN(C)c1ccc2nc(-c3ccc(-c4ccc(NCCOCCOc5ccc6c(c5)CN(C5CCC(=O)NC5=O)C6=O)nc4)cc3)sc2c1` (stereo not shown) [Compound 170352]: the DC50 was above 10 µM. As to `Cc1ncsc1-c1ccc(CNC(=O)[C@@H]2C[C@@H](O)CN2C(=O)[C@@H](NC(=O)COCCOCCOCCOCCOCCNc2ccc(-c3ccc(-c4nc5ccc(N(C)C)cc5s4)cc3)cn2)C(C)(C)C)cc1` (racemic) [Compound 161598, rac-(2R,4S)—N-[[4-(4-methyl-1,3-thiazol-5-yl)phenyl]methyl]-4-oxidanyl-1-[rac-(2R)-2-[2-[2-[2-[2-[2-[2-[[5-[4-[6-(dimethylamino)-1,3-benzothiazol-2-yl]phenyl]pyridin-2-yl]amino]ethoxy]ethoxy]ethoxy]ethoxy]ethoxy]ethanoylamino]-3,3-dimethyl-butanoyl]pyrrolidine-2-carboxamide], the DC50 was above 10 µM. For the molecule `Cc1ncsc1-c1ccc(CNC(=O)[C@@H]2C[C@@H](O)CN2C(=O)[C@@H](NC(=O)COCCOCCOc2ccc3nc(-c4ccc(-c5ccc(N(C)C)nc5)cc4)sc3c2)C(C)(C)C)cc1` [Compound 178884], the DC50 is above 10 µM. On to `COc1ccc2nc(-c3ccc(-c4ccnc(NC(=O)CCCOc5ccc6c(c5)CN(C5CCC(=O)NC5=O)C6=O)c4)cc3)sc2c1` (stereo not shown) [Compound 138876], for which the DC50 is 0.9 to 10 µM. As to `CN(C)c1ccc(-c2ccc(-c3nc4ccc(NCCOCCN5C(=O)CCC(N6Cc7c(N)cccc7C6=O)C5=O)cc4s3)cc2)cn1` (stereo not shown) [Compound 162641, 3-(7-azanyl-3-oxidanylidene-1H-isoindol-2-yl)-1-[2-[2-[[2-[4-[6-(dimethylamino)pyridin-3-yl]phenyl]-1,3-benzothiazol-6-yl]amino]ethoxy]ethyl]piperidine-2,6-dione], the DC50 was above 10 µM.

For the molecule `CN(C)c1ccc(-c2ccc(-c3nc4ccc(NCCOCCOCCOCCOCCOCCOc5ccc6c(c5)CN(C5CCC(=O)NC5=O)C6=O)cc4s3)cc2)cn1` (stereo not shown) [Compound 160273, 3-[6-[2-[2-[2-[2-[2-[2-[[2-[4-[6-(dimethylamino)pyridin-3-yl]phenyl]-1,3-benzothiazol-6-yl]amino]ethoxy]-ethoxy]ethoxy]ethoxy]ethoxy]ethoxy]-3-oxo-1H-isoindol-2-yl]piperidine-2,6-dione], the DC50 was in the range of 0.01 to 0.9 µM. On to `CN(C)c1ccc2nc(-c3ccc(-c4ccc(NCCOCCN5C(=O)CCC(N6C(=O)c7ccc(O)cc7C6=O)C5=O)nc4)cc3)sc2c1` (stereo not shown) [Compound 170351], for which the DC50 fell in the range of 0.9 to 10 µM. Turning to `Cc1ncsc1-c1ccc(CNC(=O)[C@@H]2C[C@@H](O)CN2C(=O)[C@@H](NC(=O)COCCOCCNc2ccc3nc(-c4ccc(-c5ccc(N(C)C)nc5)cc4C(F)(F)F)sc3c2)C(C)(C)C)cc1` [Compound 180187], the DC50 was above 10 µM.

`O=C1CCC(N2Cc3cc(OCCOCCNc4cc(-c5ccc(-c6nc7ccc(F)cc7s6)cc5)ccn4)ccc3C2=O)C(=O)N1` (stereo not shown) [Compound 180948]: the “inhibition of MJFR14 immunoreactivity” value is “concentration-dependent inhibition” and the DC50 was below 0.01 µM. As for `COc1ccc2nc(-c3ccc(-c4ccnc(NCCOCCOc5ccc6c(c5)C(=O)N(C5CCC(=O)NC5=O)C6=O)c4)cc3)cn2c1` (stereo not shown) [Compound 129975], the DC50 was above 10 µM. On the same count and under the same terms, next, `CN(C)c1ccc(-c2ccc(-c3nc4ccc(NCCOCCOc5ccc6c(c5)CN(C5CCC(=O)NC5=O)C6=O)cc4s3)cc2)cn1` (stereo not shown) [Compound 160313, 3-[6-[2-[2-[[2-[4-[6-(dimethylamino)pyridin-3-yl]phenyl]-1,3-benzothiazol-6-yl]amino]ethoxy]ethoxy]-3-oxo-1H-isoindol-2-yl]piperidine-2,6-dione]: above 10 µM; `COc1ccc2nc(-c3ccc(-c4ccc(NCCOCCOc5ccc6c(c5)CN(C5CCC(=O)NC5=O)C6=O)nc4)cc3)sc2c1` (stereo not shown) [Compound 177039]: above 10 µM. For the molecule `O=C1CCC(N2Cc3cc(OCCOCCNc4cc(-c5ccc(-c6cn7ccccc7n6)cc5)ccn4)ccc3C2=O)C(=O)N1` (stereo not shown) [Compound 137955], the DC50 is above 10 µM.

Take `CN(C)c1ccc(-c2ccc(-c3nc4ccc(OCCOCCOc5ccc6c(c5)CN(C5CCC(=O)NC5=O)C6=O)cc4o3)cc2)cn1` (stereo not shown) [Compound 163365]: the DC50 lay in the range of 0.01 to 0.9 µM. The same measure, in the same setting: next, `CN(C)c1ccc(-c2ccc(-c3nc4ccc(NC(=O)CCOCCOc5ccc6c(c5)CN(C5CCC(=O)NC5=O)C6=O)cc4s3)c(C(F)(F)F)c2)cn1` (stereo not shown) [Compound 132560]: above 10 µM; `CN(C)c1ccc2nc(-c3ccc(-c4ccc(NCCOCCN5C(=O)CCC(N6Cc7cc(O)ccc7C6=O)C5=O)nc4)cc3)sc2c1` (stereo not shown) [Compound 160624, 1-(2-(2-((5-(4-(6-(dimethylamino)benzo[d]thiazol-2-yl)phenyl)pyridin-2-yl)amino)ethoxy)ethyl)-3-(5-hydroxy-1-oxoisoindolin-2-yl)piperidine-2,6-dione]: above 10 µM; `CN(C)c1ccc(-c2ccc(-c3nc4ccc(NCCOCCOCCOCCOCCOCCNc5cccc6c5C(=O)N(C5CCC(=O)NC5=O)C6=O)cc4s3)cc2)cn1` (stereo not shown) [Compound 170355]: above 10 µM.
